# Experimental data: PubChem BioAssay AID2305 (GlaxoSmithKline (GSK), 2010)
# Test system: P. falciparum 3D7 growth, pLDH absorbance
# Experiment: P. falciparum 3D7 growth inhibition, dose response, strain 3D7 (AID 2305)
row,SMILES,IC50
1,COc1cc(C(=O)N2CCOC(CCN3CCC(c4ccc(Cl)cc4)CC3)(c3ccc(Cl)c(Cl)c3)C2)cc(OC)c1OC (stereo not given),180 nM
2,Cc1cccc(Nc2nc3nonc3nc2Nc2cccc(Cl)c2Cl)c1C,1030 nM
3,Cc1ccc(N2CCN(CCCCNC(=O)c3ccc(NC(=O)c4ccc(Cl)cc4)cc3)CC2)c(C)c1,760 nM
4,CN(C)CCN(C)Cc1nc(-c2ccc3c(Nc4ccc(Oc5ccccc5)cc4)ccnc3c2)cs1,210 nM
5,CCOc1cc(C(=O)N[C@@H](Cc2ccccc2)[C@H](O)CNCc2cccc(OC)c2)cc(N2CCCCS2(=O)=O)c1,720 nM
6,CCCCCN1CCCC(NS(=O)(=O)c2cccc(C(=O)Nc3cccc(C(F)(F)F)c3)c2)C1 (stereo not given),1070 nM
7,O=[N+]([O-])c1cc(/C=N/Nc2nc3ccccc3[nH]2)ccc1O,950 nM
8,O=C(NCCCCN1CCN(CC=Cc2ccccc2)CC1)c1ccc(NC(=O)c2cc(Cl)cc(Cl)c2)cc1,210 nM
9,CCn1c(-c2nonc2N)nc2cnc(Oc3cccc(NC(=O)c4ccc(OCCCN5CCCCC5)cc4)c3)cc21,930 nM
10,O=C(Cc1ccc(Cl)cc1)Nc1cc(Cl)ccc1Cn1cnc(N2CCNCC2)cc1=O,1000 nM
11,O=C(NCc1ccccc1)c1nn(CCCN2CCC3(CC2)C(=O)NCN3c2ccccc2)cc1-c1ccc(Cl)c(Cl)c1,1050 nM
12,COc1cc2nc(-c3ccc(Br)cc3)cc(N)c2cc1OC,170 nM
13,COc1cc2c(cc1CCNCCCCNCCc1cc3c(cc1OC)CCCC3)CCCC2,1000 nM
14,CC1(C)N=C(NC(=O)c2ccc([N+](=O)[O-])cc2)N=C(N)N1OCc1ccc2ccccc2c1,10 nM
15,Cc1cc(N)c2cc(NC(=O)c3cc4ccccc4s3)ccc2n1,110 nM
16,O=C(Nc1ccc2c(c1)CCN2C1CCN(Cc2cccc(F)c2F)C1)c1ccco1 (stereo not given),790 nM
17,COc1ccc(OC)c(NC(=O)C2c3ccccc3C(=O)N(CC(C)C)C2c2cccs2)c1 (stereo not given),810 nM
18,NC(=NCCc1ccc(Cl)c(Cl)c1)c1ccc2ccccc2c1,510 nM
19,Cc1ccccc1C(=O)Nc1cccc(-c2nc3ncccn3c2C)c1,760 nM
20,OC1CCCN(Cc2ccc(-c3cccc(-c4nc5ccccc5[nH]4)c3)cc2)C1 (stereo not given),1340 nM
21,CCNc1cc(C)nc(Nc2ccccc2)n1,880 nM
22,CC[C@H]1CN2CC[C@H]1C[C@H]2[C@H](O)c1cc(-c2cccc(F)c2)nc2ccc(OC)cc12,60 nM
23,c1ccc(CNCc2cccc(-c3ccc(-c4nc5ccccc5[nH]4)s3)c2)cc1,820 nM
24,CCn1c(Sc2ccc(C#N)c([N+](=O)[O-])c2)nnc1-c1ccc(Cl)cc1,550 nM
25,CCN(CC)CCn1c2ccccc2c2ccc(C(=O)Nc3ccc4sc(C)nc4c3)cc21,1060 nM

row,SMILES,IC50
1,NC(N)=NN=Cc1c2ccccc2c(Cl)c2c(Cl)cccc12,880 nM
2,Cc1ccccc1C1CCN(C2CCC(NC(=O)/C=C/c3ccc(C(F)(F)F)cc3F)CC2)CC1 (stereo not given),900 nM
3,Cc1cc(OCC2CCN(c3ncc(C(=O)NC4CC4)cc3Cl)CC2)ccc1F,790 nM
4,Cc1cccc(Nc2nccc(NCC(O)c3cccc(C(F)(F)F)c3)n2)c1 (stereo not given),510 nM
5,CCN(CC)S(=O)(=O)c1cc(-c2ccc(=O)n(CC(=O)c3ccc(C)cc3)n2)ccc1C,890 nM
6,c1nc2nc3c(c(Nc4ccc5c(c4)CCC5)n2n1)CCC3,920 nM
7,CC(C)CN1CCC(N(C)c2cc(NC(=O)c3cccc(F)c3)ccn2)CC1,850 nM
8,Cc1[nH]c(/C=C2\C(=O)Nc3ccc(S(=O)(=O)Cc4c(Cl)cccc4Cl)cc32)c(C)c1C(=O)N1CCC[C@@H]1CN1CCCC1,720 nM
9,Nc1nc(N)c2c(CCc3ccc(Cl)c(Cl)c3)cccc2n1,670 nM
10,CN(C)CCCN1C(=O)c2[nH]nc(-c3ccc(Cl)cc3O)c2C1c1ccc(Cl)cc1 (stereo not given),760 nM
11,O=S(=O)(NCCN1CCCC1)c1ccc(-c2cccc(CNCc3ccc(F)cc3)c2)cc1,730 nM
12,Cn1ccnc1S(=O)(=O)CCNCc1ccc(-c2ccc3ncnc(Nc4ccc(OCc5cccc(F)c5)c(Cl)c4)c3c2)o1,700 nM
13,O=C(NC1CCC1)C1CCN(C(c2ccccc2)c2cc(F)cc(F)c2)CC1 (stereo not given),800 nM
14,Cc1noc(-c2ccc(N3CCC(C(=O)N4CCN(C(C)C)CC4)CC3)cc2)n1,1070 nM
15,c1ccc(CCNc2ccnc(Nc3ccc4cn[nH]c4c3)n2)cc1,470 nM
16,CN(C)Cc1c(O)ccc2[nH]c(-c3ccc(F)cc3F)nc12,1300 nM
17,CS(=O)(=O)CCNCc1nc(-c2ccc3c(Nc4ccc(Cl)cc4F)ccnc3c2)cs1,1080 nM
18,CS(=O)(=O)NCCCNCc1ccc(-c2ccc(-c3nc4ccc(C(F)(F)F)cc4[nH]3)cc2)cc1,460 nM
19,COc1ccc(CN(C)CCCc2ccc(NC(=O)c3cccc4c(=O)c5cccc(F)c5[nH]c34)cc2)cc1OC,940 nM
20,O=[N+]([O-])c1cccc(-c2ccc(C=NNc3cc(N4CCCC4)nc(N4CCCC4)n3)o2)c1,710 nM
21,COc1ccc2sc(CNCCCNc3cc(=O)c4ccccc4[nH]3)c(Cl)c2c1,1070 nM
22,O=[N+]([O-])c1cccc(CNCC2CCN(Cc3ccc(Cl)c(Cl)c3)CC2)c1,910 nM
23,COc1ccc(CC(=O)Nc2ccc(Nc3nc(C)cc(N4CCCC4)n3)cc2)cc1,1110 nM
24,CCCCCCN1CCN(Cc2cccc(NC(=O)c3cc4ccccc4s3)c2)CC1,910 nM
25,Oc1ccc(CCNc2nc(NCc3ccccc3-c3cccc(Cl)c3)nc(N3CCNCC3)n2)cc1,1280 nM
